In experiment [1] the target is T1, S. aureus topoIV (Staphylococcus aureus, UniProt Q2FYS4).
T1 construct: purchased Inspiralis (Norwich, UK)
Kind of experiment: TopoIV decatenation inhibition assay (S. aureus). It counts as biochemical. The settings on record: read-out: IC50 TopoIV S. aureus, mean of two independent measurements ± SD.

Experiment [2] has as its target Human topoisomerase IIα (Homo sapiens, UniProt P11388). In words: Human topoisomerase IIα residual activity. The settings on record: read-out: Human topoisomerase IIα (%RA). It counts as biochemical.
Experiment [3] addresses T2, S. aureus DNA gyrase (Staphylococcus aureus, UniProt P20831).
T2 construct: purchased Inspiralis (Norwich, UK)
In words: DNA gyrase supercoiling inhibition assay (S. aureus). It counts as biochemical. The settings on record: mean of two independent measurements ± SD. On the procedure:
We synthesized and biologically evaluated ten new compounds. We determined their inhibitory activity, expressed as IC50 values, on both Gram-positive S. aureus and Gram-negative E. coli bacterial enzymes (DNA gyrase and topo IV), respectively. The in vitro antibacterial activity, expressed as minimum inhibitory concentration (MIC), was determined against broad spectrum of bacteria, including Gram-positive (Staphylococcus aureus, methicillin-resistant Staphylococcus aureus, Streptococcus agalactiae, and Enterococcus faecalis) and Gram-negative strains (Escherichia coli, Salmonella alachua, Pseudomonas aeruginosa, and Klebsiella pneumoniae), enriched with various MRSA strains resistant to various antibiotics as well as E. coli strains with increased membrane permeability and lack of efflux pump, as well. Furthermore, the selectivity of compounds for bacterial enzyme compared to the orthologous human topoisomerase IIα was also considered. The in vitro safety profile was determined by cytotoxicity assessment on human umbilical vein endothelial cell lines (HUVEC) and HepG2 liver cancer cell lines.
Determination of DNA gyrase and topoisomerase IV inhibitory activities
To determine the IC50 values of the compounds, a Gyrase Supercoiling High Throughput Plate assay kit and a TopoIV Relaxation High Throughput Plate assay kit, commercially available from Inspiralis (Norwich, UK), were used for S. aureus and E. coli. The assays were performed on black streptavidin-coated 96-well microtiter plates (Thermo Scientific Pierce, Norwich, UK) and the wells were first […]
BSA and 0.05% [v/v] Tween-20). Biotinylated oligonucleotide diluted with the wash buffer was then immobilized in each well and the excess was removed with the wash buffer. 1.5 U of the enzyme S. aureus or E. coli DNA gyrase (topoIV) was incubated together with 0.75 μg of relaxed (supercoiled) pNO1 plasmid as substrate in the presence of 3 μl inhibitor solution in 10% DMSO and 0.008% Tween-20 at 37°C for 30 min in a final reaction volume of 30 μl in the assay buffer (S. aureus DNA gyrase: 40 mM HEPES.KOH (pH 7.6), 10 mM magnesium acetate, 10 mM DTT, 2 mM ATP, 500 mM potassium glutamate and 0.05 mg/ml albumin; E. coli DNA gyrase: 35 mM Tris.HCl (pH 7.5), 24 […]
mg/ml albumin; S. aureus topo IV: 50 mM Tris.HCl (7.5), 5 mM MgCl 2, 5 mM DTT, 1.5 mM ATP, 350 mM potassium glutamate and 0.05 mg/ml albumin; E. coli topo IV: 40 mM HEPES.KOH (pH 7.6), 100 mM potassium glutamate, 10 mM magnesium acetate, 10 mM DTT, 1 mM ATP and 50 μg/ml albumin). The reaction was stopped by adding the TF buffer (50 mM NaOAc (pH 4.7), 50 mM NaCl and 50 mM MgCl2) to allow triplex formation (biotin oligonucleotide plasmid) for another 30 min. Finally, the unbound plasmid was washed off using the TF buffer and the Promega Diamond dye was added to T10 buffer (10 mM Tris-HCl (pH 8.0), 1 mM EDTA) solution. After 15 min the solution […]
Two inhibitor concentrations of 100 and 1 μM were used for pre-screening. The IC 50 values […]
(IC50) was calculated by nonlinear regression-based fitting of the inhibition curves using the log [inhibitor] versus response-variable slope (four parameters) – symmetrical equation, in GraphPad Prism 6.0 software (GraphPad Software, CA, USA). The IC50 value represents the average of two independent measurements.
The minimum inhibitory concentrations (MICs) were determined using the broth micro-dilution method in 96-well plate format according to the Clinical and Laboratory Standards Institute

Experiment [4] has as its system E. coli N43 (CGSC no. 5583). In words: microbe, parasite or virus in culture. The settings on record: Escherichia coli. The method, then: (§1) The in vitro antibacterial activity, expressed as minimum inhibitory concentration (MIC), was determined against broad spectrum of bacteria, including Gram-positive (Staphylococcus aureus, methicillin-resistant Staphylococcus aureus, Streptococcus agalactiae, and Enterococcus faecalis) and Gram-negative strains (Escherichia coli, Salmonella alachua, Pseudomonas aeruginosa, and Klebsiella pneumoniae), enriched with various MRSA strains resistant to various antibiotics as well as E. coli strains with increased membrane permeability and lack of efflux pump, as well. […]
(§2) The minimum inhibitory concentrations (MICs) were determined using the broth micro-dilution method in 96-well plate format according to the Clinical and Laboratory Standards Institute […]
(§3) guidelines8 and European Committee on Antimicrobial Susceptibility Testing recommendations9. The bacterial suspension of the specific bacterial strain equivalent to the 0.5 McFarland turbidity standard was diluted with cation-adapted Mueller Hinton broth with TES (Thermo Fisher Scientific) to obtain a […]
(§4) The compounds dissolved in DMSO and inoculum were mixed together and incubated for 20 h at 35 °C.

The test system of experiment [5] is MRSA (QA-11.7). Kind of experiment: microbe, parasite or virus in culture. The settings on record: Staphylococcus aureus, read-out: MIC MRSA (QA-11.7). On the procedure:
as §1, §2, §3, §4

In experiment [6] the test system is E. coli D22. In words: microbe, parasite or virus in culture. The settings on record: Escherichia coli. On the procedure: as §1, §2, §3, §4
For experiment [7], the system named is E. coli (ATCC 25922). In words: microbe, parasite or virus in culture. The settings on record: Escherichia coli, ATCC25922, read-out: MIC E. coli (ATCC 25922). On the procedure:
as §1, §2, §3, §4

For experiment [8], the system named is Klebsiella pneumoniae. In words: microbe, parasite or virus in culture. The method, then: as §1, §2, §3, §4
The subject of experiment [9] is Streptococcus agalactiae RDK 047 (QA-990/02). In words: microbe, parasite or virus in culture. On the procedure: as §1, §2, §3, §4
In experiment [10] the test system is Pseudomonas aeruginosa RDK 184 (DSM 939). In words: microbe, parasite or virus in culture. On the procedure: as §1, §2, §3, §4
Experiment [11] has as its system Salmonella alachua RDK 030c (QA-1482/04). Kind of experiment: microbe, parasite or virus in culture. On the procedure: as §1, §2, §3, §4
The subject of experiment [12] is MRSA (QA-12.1). In words: microbe, parasite or virus in culture. The settings on record: Staphylococcus aureus, read-out: MIC MRSA (QA-12.1). On the procedure:
as §1, §2, §3, §4

For experiment [13], the system named is S. aureus (ATCC 29213). In words: microbe, parasite or virus in culture. The settings on record: Staphylococcus aureus, ATCC29213, read-out: MIC S. aureus (ATCC 29213). On the procedure: as §1, §2, §3, §4
The subject of experiment [14] is Enterococcus faecalis DRK 057 (ATCC 29212). Kind of experiment: microbe, parasite or virus in culture. The method, then: as §1, §2, §3, §4

Structures are written as SMILES. “And” between values parts separate entries of the source, which are not always exact repeats. Equal values may be shown once. Read-outs that look alike come from different tables or passages of the source.

T1 sequence (Q2FYS4 whole entry, looked up): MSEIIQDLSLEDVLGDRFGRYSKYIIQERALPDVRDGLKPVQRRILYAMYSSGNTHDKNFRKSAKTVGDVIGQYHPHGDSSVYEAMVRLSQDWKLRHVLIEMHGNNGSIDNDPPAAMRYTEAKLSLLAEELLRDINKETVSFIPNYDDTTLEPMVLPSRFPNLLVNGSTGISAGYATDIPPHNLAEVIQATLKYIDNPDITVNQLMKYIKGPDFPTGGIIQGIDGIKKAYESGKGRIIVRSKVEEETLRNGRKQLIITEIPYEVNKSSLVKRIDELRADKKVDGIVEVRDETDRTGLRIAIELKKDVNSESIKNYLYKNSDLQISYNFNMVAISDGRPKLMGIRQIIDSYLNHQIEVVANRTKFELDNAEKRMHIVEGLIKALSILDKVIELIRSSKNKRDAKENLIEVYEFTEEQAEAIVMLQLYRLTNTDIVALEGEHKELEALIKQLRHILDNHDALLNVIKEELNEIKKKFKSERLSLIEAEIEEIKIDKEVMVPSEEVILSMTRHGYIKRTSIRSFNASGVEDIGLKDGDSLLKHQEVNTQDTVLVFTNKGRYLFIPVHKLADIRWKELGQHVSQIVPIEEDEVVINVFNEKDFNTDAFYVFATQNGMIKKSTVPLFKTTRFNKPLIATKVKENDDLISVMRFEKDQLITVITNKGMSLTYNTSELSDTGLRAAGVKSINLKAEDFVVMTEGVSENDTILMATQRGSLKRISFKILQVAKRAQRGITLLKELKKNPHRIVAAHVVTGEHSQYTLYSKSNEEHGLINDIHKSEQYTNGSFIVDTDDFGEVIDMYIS
Sequence of Human topoisomerase IIα (P11388 whole entry): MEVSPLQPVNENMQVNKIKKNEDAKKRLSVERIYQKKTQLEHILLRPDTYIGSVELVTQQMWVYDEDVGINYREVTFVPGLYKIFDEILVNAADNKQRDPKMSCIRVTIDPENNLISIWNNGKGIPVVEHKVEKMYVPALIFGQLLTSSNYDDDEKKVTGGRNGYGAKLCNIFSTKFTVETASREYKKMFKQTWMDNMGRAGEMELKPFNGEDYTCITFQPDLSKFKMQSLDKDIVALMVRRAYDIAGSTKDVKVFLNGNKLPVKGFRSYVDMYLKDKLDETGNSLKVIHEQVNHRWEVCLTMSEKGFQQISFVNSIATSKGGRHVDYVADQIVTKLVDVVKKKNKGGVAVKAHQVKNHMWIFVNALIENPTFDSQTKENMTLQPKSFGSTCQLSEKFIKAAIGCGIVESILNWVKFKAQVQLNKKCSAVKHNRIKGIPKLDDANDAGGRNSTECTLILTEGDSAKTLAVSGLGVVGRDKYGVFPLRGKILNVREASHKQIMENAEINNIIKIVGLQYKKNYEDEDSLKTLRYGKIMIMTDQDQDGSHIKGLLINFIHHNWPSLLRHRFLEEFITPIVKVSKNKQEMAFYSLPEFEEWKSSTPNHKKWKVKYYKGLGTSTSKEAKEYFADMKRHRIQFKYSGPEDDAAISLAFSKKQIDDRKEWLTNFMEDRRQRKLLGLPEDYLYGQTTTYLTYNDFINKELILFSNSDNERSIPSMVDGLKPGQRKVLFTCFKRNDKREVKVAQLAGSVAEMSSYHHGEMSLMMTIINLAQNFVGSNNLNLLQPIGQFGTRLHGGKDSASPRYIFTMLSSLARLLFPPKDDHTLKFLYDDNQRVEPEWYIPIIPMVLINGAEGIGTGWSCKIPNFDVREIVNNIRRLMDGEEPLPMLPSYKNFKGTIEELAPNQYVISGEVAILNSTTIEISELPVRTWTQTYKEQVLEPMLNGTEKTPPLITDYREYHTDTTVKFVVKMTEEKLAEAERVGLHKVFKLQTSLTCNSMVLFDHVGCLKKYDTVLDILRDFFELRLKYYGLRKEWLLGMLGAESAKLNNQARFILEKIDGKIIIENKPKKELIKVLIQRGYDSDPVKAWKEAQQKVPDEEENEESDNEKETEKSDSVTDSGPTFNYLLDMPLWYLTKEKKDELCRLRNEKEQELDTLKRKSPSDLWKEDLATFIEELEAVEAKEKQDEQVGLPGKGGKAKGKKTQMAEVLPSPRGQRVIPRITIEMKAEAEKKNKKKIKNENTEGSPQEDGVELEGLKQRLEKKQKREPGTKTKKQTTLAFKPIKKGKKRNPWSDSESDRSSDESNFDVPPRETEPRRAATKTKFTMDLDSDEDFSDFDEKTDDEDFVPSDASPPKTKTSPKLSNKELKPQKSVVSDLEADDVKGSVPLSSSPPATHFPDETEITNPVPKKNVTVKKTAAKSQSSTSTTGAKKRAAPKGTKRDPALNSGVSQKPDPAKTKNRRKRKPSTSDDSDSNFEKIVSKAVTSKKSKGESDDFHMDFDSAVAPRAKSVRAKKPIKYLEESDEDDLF
T2 sequence (P20831 whole entry, looked up): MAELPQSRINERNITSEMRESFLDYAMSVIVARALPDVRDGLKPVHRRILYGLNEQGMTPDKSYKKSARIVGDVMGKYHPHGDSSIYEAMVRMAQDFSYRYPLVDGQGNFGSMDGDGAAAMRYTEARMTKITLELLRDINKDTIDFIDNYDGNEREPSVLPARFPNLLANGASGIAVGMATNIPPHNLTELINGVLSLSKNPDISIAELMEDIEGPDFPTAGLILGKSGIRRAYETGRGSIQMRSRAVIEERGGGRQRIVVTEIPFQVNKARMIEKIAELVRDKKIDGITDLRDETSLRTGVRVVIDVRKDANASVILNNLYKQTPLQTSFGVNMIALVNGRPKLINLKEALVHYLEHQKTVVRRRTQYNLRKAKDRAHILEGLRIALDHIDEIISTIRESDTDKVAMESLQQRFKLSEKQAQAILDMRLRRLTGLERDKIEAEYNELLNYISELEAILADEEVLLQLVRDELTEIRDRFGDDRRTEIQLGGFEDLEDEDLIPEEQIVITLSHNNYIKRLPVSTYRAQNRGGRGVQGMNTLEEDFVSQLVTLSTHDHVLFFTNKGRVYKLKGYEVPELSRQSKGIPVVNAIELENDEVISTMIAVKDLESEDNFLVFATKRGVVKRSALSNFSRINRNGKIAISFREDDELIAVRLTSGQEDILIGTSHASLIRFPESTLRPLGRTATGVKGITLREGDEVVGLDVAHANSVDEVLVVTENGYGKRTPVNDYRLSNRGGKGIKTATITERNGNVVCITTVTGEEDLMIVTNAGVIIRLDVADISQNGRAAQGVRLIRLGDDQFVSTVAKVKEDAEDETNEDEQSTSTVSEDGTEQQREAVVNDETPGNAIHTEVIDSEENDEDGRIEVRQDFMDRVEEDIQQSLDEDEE

Turning to `COc1ccc2nccc(CCN3CCC(NCc4ccc(I)c(F)c4)CC3)c2n1` [Compound 6], the IC50 in experiment [1] turned out to be 0.09 ± 0.102 µM; in experiment [3], 0.004 µM. For the same molecule, in experiment [2], the remaining activity at 10 µM was 97.7 ± 1.31%. The MIC in experiment [4] (read-out: MIC E. coli N43 (CGSC no. 5583)) was 0.016 mg/L; in experiment [4] (read-out: MIC E. coli N43 (CGSC# 5583)), 0.031 µM; in [5], 0.031 µM and 0.016 µg/mL; in experiment [6] (D22, read-out: MIC E. coli D2), 0.119 µM; in experiment [6] (D22, read-out: MIC E. coli D22) it was 0.062 mg/L; in experiment [7] it was 0.961 µM and 0.5 µg/mL. Moreover, the MIC in experiment [8] (read-out: MIC K. pneumoniae) is 15.4 µM; in [8] (read-out: MIC Klebsiella pneumoniae) it was 8 mg/L; in [9] (read-out: MIC S. agalactiae RDK 047 (QA-990/02)), 0.48 µM; in experiment [9] (read-out: MIC Streptococcus agalactiae RDK 047 (QA-990/02)), 0.25 mg/L; in [10] (DSM939, read-out: MIC P. aeruginosa RDK 184 (DSM 939)), 30.7 µM; in experiment [10] (DSM939, read-out: MIC Pseudomonas aeruginosa RDK 184 (DSM 939)), 16 mg/L. Moreover, the MIC in [11] (read-out: MIC S. alachua RDK 030c (QA-1482/04)) is 3.84 µM; in experiment [11] (read-out: MIC Salmonella alachua RDK 030c (QA-1482/04)) it was 2 mg/L; in [12] it was 0.031 µM and 0.016 µg/mL; in [13], 0.015 µM and 0.008 µg/mL; in experiment [14] (ATCC29212, read-out: MIC E. faecalis DRK 057 (ATCC 29212)), 0.48 µM; in experiment [14] (ATCC29212, read-out: MIC Enterococcus faecalis DRK 057 (ATCC 29212)), 0.25 mg/L.

The record behind these values is paper PMC8436411 (ACS Medicinal Chemistry Letters, 2021).
